Patent publication US20100203507A1 (PROMETHEUS LABORATORIES, INC, priority 2005, published 2010)
Several values for one entry are separate records, joined by “and”; a condition that tells them apart may be missing. Identical values can stand only once.

Legend:
[1] = system: RBC folate polyglutamates; experiment: RBC folate polyglutamate levels by radio-assay (Example 2); assay type: in vivo, human; conditions: for RBC folate PG decrease versus baseline / RBC folate PG levels: fourth visit
Experimental: Laboratory measurements: Red blood cell (RBC) long-chain MTXPG concentrations (MTXPG3; nmol/L RBC) were measured using a post-column photo-oxidation HPLC-fluorometry technique as described in, e.g., Dervieux et al., Clin. Chem., 49:1632-1641 (2003). RBC folate polyglutamates (Folate PGs; expressed as nmol/L RBCs) were measured using a radio-assay (Biorad; Hercules, Calif.). The MTHFR C677T polymorphism can be measured with a real-time TaqMan allelic discrimination assay as described above. The MS A2756G polymorphism, which results in an aspartic acid to glycine substitution at codon 919 of MS, can be measured with a real-time TaqMan allelic discrimination assay using the following primers and fluorogenic 3′-minor groove binding probes: forward primer: 5′-GAATACTTTGAGGAAATCATGGAAGA-3′ (SEQ ID NO:17); reverse primer: 5′-TCTGTTTCTACCACTTACCTTGAGAGACT-3′ (SEQ ID NO:18); wild-type fluorescent probe: 5′-FAM-AGA CAG GAC CAT TAT G-MGB-3′ (SEQ ID NO:19); and mutant fluorescent probe: 5′-VIC-ACA GGG CCA TTA TG-MGB-3′ (SEQ ID NO:20).

[2] = system: patients with rheumatoid arthritis; experiment: Cross-sectional study: clinical efficacy by disease activity score DAS28 (Example 1); assay type: in vivo, human
Experimental: (§1) Study design: The study was cross-sectional at two investigational California sites (Cedars Sinai, Department of Rheumatology; and UCLA, Department of Rheumatology). […] Concomitant disease-modifying arthritis agents (e.g., sulphasalazine, hydroxychloroquine, leflunomide), low-dose corticosteroids (<10 mg day), and folic acid supplementation were allowed. […] Patient demographics were collected at the time of enrollment in the study. At a single study visit, EDTA blood was drawn and shipped overnight to Prometheus Laboratories in San Diego, Calif.
(§2) Clinical status assessment: Patient clinical and demographic characteristics were collected at the single study visit. Clinical efficacy was assessed using the disease activity score (DAS28), which includes the number of tender and swollen joint counts (n=28), the erythrocyte sedimentation rate, and the patient's global assessment of disease activity.

[3] = system: patients with rheumatoid arthritis; experiment: Cross-sectional study: occurrence of side-effects under low dose MTX therapy (Example 1); assay type: in vivo, human
Experimental: as §1, §2
Statistical analysis: The analysis consisted of multivariate logistic regression with the occurrence of side-effects as the dependent variable.

[4] = system: adult rheumatoid arthritis patients naive to MTX; experiment: Prospective longitudinal MTX dose escalation study: response (DAS28, EULAR criteria, physician's assessment VAS) (Example 2)
[5] = 97 patients, single study visit
[6] = visit 4, generalized linear model

## CN(Cc1cnc2nc(N)nc(N)c2n1)c1ccc(C(=O)N[C@@H](CCC(=O)O)C(=O)O)cc1 [MTX, methotrexate]
[1]; baseline to visit 4
  Estimate, percentage change in DAS28 vs percentage change in folate PG levels: 0.32±0.10
  Estimate, percentage change in physician's assessment VAS vs percentage change in folate PG levels: 0.71±0.22
[1]; baseline to visit 6
  Estimate, MTX dose vs decrease in RBC folate PGs: 0.0324±0.014
  Estimate, MTXPG levels vs decrease in RBC folate PGs: −0.009±0.003
[1]; dose 7.5 to 15 mg/week with MTXPG increase of 40 nmol/L RBCs at visit 6, from model equation
  Decrease in folate levels: 11.7%
[1]; fourth study visit, n=43 (initial 1222)
  Median RBC folate PG levels: 1065 nmol/L RBCs
[1]; efficacy index above 1
  RBC folate PG decrease versus baseline: 14%
  RBC folate PG levels: 1257 ± 70 nmol/L
[1]; efficacy index of 0
  RBC folate PG decrease versus baseline: 36%
  RBC folate PG levels: 886 ± 59 nmol/L
[1]; efficacy index of 1
  RBC folate PG decrease versus baseline: 42%
  RBC folate PG levels: 1168 ± 70 nmol/L
[1]; sixth visit
  Median RBC folate PG levels: 994 nmol/L RBCs
[1]; visit 4
  Likelihood of response to MTX, decrease in RBC folate PGs vs no change or increase: 8 fold and 7.7 fold
[2]; 97 patients on MTX
  Patients presenting with a high disease activity: 47%
[2]; 97 patients, median 30 months under methotrexate
  Disease activity score (DAS28), median: 5.04
[3]; 97 patients
  Patients with high disease activity and side-effects, number: 18
[3]; 97 patients on MTX at least one month, single study visit
  Overall side-effects, number of patients: 40
[3]; [5]
  AST >40 U/L, % of patients: (6.1%)
  AST >40 U/L, number of patients: 6
  Alopecia, % of patients: (17.5%)
  Alopecia, number of patients: 17
  Central nervous system side-effects, % of patients: (11.3%)
  Central nervous system side-effects, number of patients: 11
  Diarrhea, % of patients: (6.2%)
  Diarrhea, number of patients: 6
  Dyspepsia, % of patients: (7.2%)
  Dyspepsia, number of patients: 7
  Elevation of AST twice the upper normal value, pulmonary toxicity, or hematopoietic toxicity: None of the patients
  Gastrointestinal tract side-effects, % of patients: (24.7%)
  Gastrointestinal tract side-effects, number of patients: 24
  Headache, % of patients: (5.1%)
  Headache, number of patients: 8
  Lethargy, % of patients: (8.2%)
  Lethargy, number of patients: 8
  Nausea, % of patients: (9.2%)
  Nausea, number of patients: 9
  Severity of side-effects: mild and did not require MTX withdrawal
  Stomatatis, % of patients: (3.1%)
  Stomatatis, number of patients: 3
[3]; of patients with high disease activity, at the time of the visit
  Patients with high disease activity also experiencing a side-effect: 39%
[3]; patients with MTHFR 677C/T or 677C/C genotype
  Occurrence of central nervous system side-effects: 9.0%
[3]; patients with MTHFR 677T/T genotype
  Occurrence of central nervous system side-effects: 62.5%
[3]; toxicogenetic index of 0
  Patients presenting with a side-effect: 17%
[4]; MTHFR 677T/T genotype
  Estimate, lower decrease in physician's assessment in disease activity: 0.367
[4]; MTHFR 677T/T genotype, visit 4
  OR, lower likelihood of response to therapy: 9.9
[4]; RBC MTXPG3
  OR, therapeutic response at about 6 months when MTXPG3 greater than about 20 nmol/L RBCs at about 3 months: 8.0
[4]; TS *2/*2 genotype
  Estimate, lower decrease in physician's assessment in disease activity: 0.360
[4]; TS *2/*2 genotype, visit 4
  OR, lower likelihood of response to therapy: 3.9
[4]; dose escalation 7.5 to 15 mg/week with MTXPG increase of 40 nmol/L RBCs at visit 4, from model equation
  Decrease in physician's assessment of disease activity compared to baseline: 19.8%
[4]; visit 4
  Patients responding to therapy: 77%
  Patients responding to therapy, number: 36
  Patients with good response, number: 15
  Patients with moderate response, number: 11
  Patients with poor response (EULAR): 23%
[4]; visit 4 (baseline 5.1)
  DAS28, median: 3.5
[4]; visit 4 (baseline 5.6)
  Physician's assessment of disease activity 10 cm VAS, median: 2.6
[4]; [6]
  Estimate, RBC MTXPG level vs percentage change from baseline in physician's assessment VAS: −0.013±0.004
  Estimate, weekly MTX dose vs percentage change from baseline in physician's assessment VAS: 0.043±0.017
